For one assay, the target named is c-Cbl (Homo sapiens (Human), UniProt P22681). Briefly: C-Cbl LCK Ub TR-FRET assay (c-cbl Lck HTRF). The format is biochemical. Particulars: for (fold-selectivity): C-cbl Lck HTRF IC50 relative to Cbl-b Lck HTRF IC50. The method, then: 6 μL of detection mixture was added to all wells and briefly centrifuged before incubating for 20 min at room temperature. […] IC50 was generated using no LCK as the low control and DMSO as the high control.
For orientation: TR-FRET usually uses a lanthanide donor and a delayed reading to cut background.

The target in the next assay is Cbl-b (Homo sapiens (Human), UniProt Q13191). Briefly: Cbl-b LCK Ub TR-FRET assay (Cbl-b Lck HTRF). It is filed as biochemical. The method, then: Compounds were 3-fold serially diluted in DMSO in a 384-well polypropylene plate (#P-05525-BC; Labcyte) to generate a source plate with 10 concentrations of each compound, top concentration=2 mM. 80 nL of DMSO or compounds were transferred to each well of a black 384-well ProxiPlate (#6008260; PerkinElmer) using a Labcyte Echo. 1×assay buffer (50 mM HEPES pH7.0, 100 mM NaCl, 0.01% BSA, 0.01% Triton-X100, 1 mM DTT), 2×enzyme solution (16 nM Biotin-Cbl-b or 12 nM Biotin-c-Cbl in 1× assay buffer), 2×kinase mixture (120 nM His-LCK, 1 mM ATP, 10 mM MgCl2 in assay buffer) and 2.33×detection mixture (4.66×solution 1: 163 nM Anti-HA-D2 antibody (#610HADAB; PerkinElmer), 27.96 nM Streptavidin-EU (#AD0062; PerkinElmer), 1.398 mM EDTA in 1×assay buffer+4.66×solution 2: 2.796 μM UBE2D2/Methylated-HA-Ubiquitin thioester adduct (BostonBiochem) in 1×assay buffer) were prepared. 4 μL of 2× enzyme solution was added to each well containing compound, briefly centrifuged to mix, and incubated for 60 min at room temperature. 4 μL of 2× kinase mixture was added, briefly centrifuged to mix, and incubated for 90 min. at room temperature. 6 μL of detection mixture was added to all wells and briefly centrifuged before incubating for 20 min at room temperature. Plates were read for TR-FRET using an Envision at excitation 340 nm, emission at 615 and 665 nm, 4 flashes per well. IC50 was generated using no LCK as the low control and DMSO as the high control.
Cbl-b Lck HTRF data in Table 7 is measured according to Example 76 herein; C-cbl Lck HTRF data is measured according to Example 76 herein.

Where a name gives a salt, the structure may show the parent alone.

Consider 18 molecules from patent publication US20250230147A1, “LACTAMS AS CBL-B INHIBITORS” (Genentech, Inc., priority 2021, published 2025).

c-Cbl, sequence (P22681 47-435): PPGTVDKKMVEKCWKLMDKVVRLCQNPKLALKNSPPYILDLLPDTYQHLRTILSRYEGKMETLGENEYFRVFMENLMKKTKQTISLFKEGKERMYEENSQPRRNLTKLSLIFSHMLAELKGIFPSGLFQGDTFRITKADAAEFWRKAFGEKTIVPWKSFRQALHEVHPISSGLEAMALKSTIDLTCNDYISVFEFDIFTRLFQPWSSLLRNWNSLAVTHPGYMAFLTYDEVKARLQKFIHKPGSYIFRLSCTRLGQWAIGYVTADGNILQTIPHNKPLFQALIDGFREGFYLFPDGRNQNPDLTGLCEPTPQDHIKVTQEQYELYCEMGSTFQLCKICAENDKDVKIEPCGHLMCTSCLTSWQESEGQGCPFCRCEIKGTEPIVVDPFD
Cbl-b, sequence (Q13191 40-426): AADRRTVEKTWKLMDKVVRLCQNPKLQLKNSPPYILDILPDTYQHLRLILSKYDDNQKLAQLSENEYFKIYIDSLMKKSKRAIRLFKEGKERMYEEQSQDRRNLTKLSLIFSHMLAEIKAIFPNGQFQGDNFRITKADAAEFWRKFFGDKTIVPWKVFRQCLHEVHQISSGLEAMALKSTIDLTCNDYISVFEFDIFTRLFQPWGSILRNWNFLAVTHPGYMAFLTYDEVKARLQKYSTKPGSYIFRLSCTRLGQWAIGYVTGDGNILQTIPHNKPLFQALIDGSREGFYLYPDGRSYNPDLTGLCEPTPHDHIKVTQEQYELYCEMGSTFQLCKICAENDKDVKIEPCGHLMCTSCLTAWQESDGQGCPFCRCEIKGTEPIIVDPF

With `Cn1cnnc1CC1(c2cccc(N3Cc4c(cc(C5CCCN5)cc4C(F)(F)F)C3=O)c2)COC1.O=CO` (racemic) [Compound 11, 2-(3-(3-((4-methyl-4H-1,2,4-triazol-3-yl)methyl)oxetan-3-yl)phenyl)-6-(pyrrolidin-2-yl)-4-(trifluoromethyl)isoindolin-1-one formate], the results for the IC50 against c-Cbl and on Cbl-b were 620 nM and 420 nM, respectively. The “(fold-selectivity)” value on c-Cbl was 1.5x.
Consider `Cn1cnnc1CC(F)c1cccc(N2Cc3c(cccc3C(F)(F)F)C2=O)c1` (racemic) [Compound 14, 2-[3-[1-fluoro-2-(4-methyl-4H-1,2,4-triazol-3-yl)ethyl]phenyl]-4-(trifluoromethyl)isoindolin-1-one], for which, on c-Cbl, the IC50 was determined as 20000 nM and the “(fold-selectivity)” value was 2.0x. For the same molecule, the IC50 against Cbl-b is 10000 nM.
In the same order, the values of `Cn1cnnc1CC1(c2cccc(N3Cc4c(cc(C5CCNC5)cc4C(F)(F)F)C3=O)c2)COC1.O=CO` (racemic) [Compound 50, (±)-2-(3-(3-((4-methyl-4H-1,2,4-triazol-3-yl)methyl)oxetan-3-yl)phenyl)-6-(pyrrolidin-3-yl)-4-(trifluoromethyl)isoindolin-1-one formate] are 90 nM, 1.7x and 54 nM.
For `Cn1cnnc1[C@@H](F)C1(c2cccc(N3Cc4c(cc(CN5CC(C)(O)C5)cc4C(F)(F)F)C3=O)c2)CC1` (single isomer, unassigned) [Compound 29], on c-Cbl, the IC50 was determined as 230 nM and the “(fold-selectivity)” value is 1.8x. On Cbl-b, this molecule showed a 50% inhibitory concentration (IC50) of 120 nM.
`Cn1cnnc1[C@H](F)C1(c2cccc(N3Cc4c(cc(CN5CC(C)(O)C5)cc4C(F)(F)F)C3=O)c2)CC1` (single isomer, unassigned) [Compound 30]: at c-Cbl, the IC50 came out at 91 nM and the “(fold-selectivity)” value was 1.4x. This molecule also came in with an IC50 at Cbl-b of 65 nM.
Turning to `CC(C)[C@H]1CN(C)CCN1Cc1cc2c(c(C(F)(F)F)c1)CN(c1cccc([C@]3([C@@H](F)c4nncn4C)CCO3)c1)C2=O` (single isomer, unassigned) [Compound 261], on c-Cbl, the IC50 turned out to be 150 nM and the “(fold-selectivity)” value is “(1.1x)”. At Cbl-b, this molecule gave a concentration for half-maximal inhibition (IC50) of 140 nM.
With `CC(C)[C@H]1CN(C)CCN1Cc1cc2c(c(C(F)(F)F)c1)CN(c1cccc([C@]3([C@H](F)c4nncn4C)CCO3)c1)C2=O` (single isomer, unassigned) [Compound 262], the values for the IC50 at c-Cbl and at Cbl-b were 840 nM and 580 nM, respectively. For the same molecule, the “(fold-selectivity)” value on c-Cbl was “(1.4x)”.
`CC[C@H]1CCC[C@@H](c2cc3c(c(C(F)(F)F)c2)CN(c2cccc(C4(Cc5nncn5C)CC(F)(F)C4)c2)C3=O)N1` (single isomer, unassigned) [Compound 273]: on c-Cbl, the IC50 worked out at 77 nM and the “(fold-selectivity)” value is given as “(1.5x)”. It took 51 nM to reach half-maximal inhibition against Cbl-b (IC50).
Turning to `Cn1cnnc1[C@H](F)C1(c2cccc(N3Cc4c(cc(CN5CC6(COC6)C5)cc4C(F)(F)F)C3=O)c2)COC1` [Compound 9, (R)-6-(2-oxa-6-azaspiro[3.3]heptan-6-ylmethyl)-2-(3-(3-(fluoro(4-methyl-4H-1,2,4-triazol-3-yl)methyl)oxetan-3-yl)phenyl)-4-(trifluoromethyl)isoindolin-1-one], at c-Cbl, the IC50 amounted to 350 nM and the “(fold-selectivity)” value is listed as 2.1x. At Cbl-b, the IC50 came to 160 nM.
In the same order, the values of `Cn1cnnc1[C@@H](F)C1(c2cccc(N3Cc4c(cc(CN5CC6(COC6)C5)cc4C(F)(F)F)C3=O)c2)COC1` [Compound 10, (S)-6-(2-oxa-6-azaspiro[3.3]heptan-6-ylmethyl)-2-(3-(3-(fluoro(4-methyl-4H-1,2,4-triazol-3-yl)methyl)oxetan-3-yl)phenyl)-4-(trifluoromethyl)isoindolin-1-one] are 1100 nM, 2.3x and 500 nM.
Turning to `Cn1cnnc1CC1(c2cccc(N3Cc4c(cc(C5CNC5)cc4C(F)(F)F)C3=O)c2)COC1` [Compound 12, 6-(azetidin-3-yl)-2-(3-(3-((4-methyl-4H-1,2,4-triazol-3-yl)methyl)oxetan-3-yl)phenyl)-4-(trifluoromethyl)isoindolin-1-one], on c-Cbl, it took 210 nM to reach half-maximal inhibition (IC50) and the “(fold-selectivity)” value is 0.94x. In addition, on Cbl-b, half-maximal inhibition (IC50) was put at 220 nM.
Consider `Cn1cnnc1CC1(c2cccc(N3Cc4c(cc(C5CCN5)cc4C(F)(F)F)C3=O)c2)COC1` (stereo not drawn) [Compound 13, 6-(azetidin-2-yl)-2-(3-(3-((4-methyl-4H-1,2,4-triazol-3-yl)methyl)oxetan-3-yl)phenyl)-4-(trifluoromethyl)isoindolin-1-one formate], for which the IC50 against c-Cbl was determined as 540 nM; on Cbl-b, 320 nM.
As to `Cn1cnnc1CC(F)(F)c1cccc(N2Cc3c(cccc3C(F)(F)F)C2=O)c1` [Compound 15, 2-(3-(1,1-difluoro-2-(4-methyl-4H-1,2,4-triazol-3-yl)ethyl)phenyl)-4-(trifluoromethyl)isoindolin-1-one], at c-Cbl, the IC50 was found to be 6400 nM and the “(fold-selectivity)” value was 1.8x. The IC50 against Cbl-b is 3500 nM.
With `Cn1cnnc1CC1(c2cccc(N3Cc4c(cc(CN5CC(C)(O)C5)cc4C(F)(F)F)C3=O)c2)CC(F)(F)C1` [Compound 17, 2-(3-(3,3-difluoro-1-((4-methyl-4H-1,2,4-triazol-3-yl)methyl)cyclo-butyl)phenyl)-6-((3-hydroxy-3-methylazetidin-1-yl)methyl)-4-(trifluoromethyl)isoindolin-1-one], on c-Cbl, inhibition was half-maximal at 14 nM (IC50) and the “(fold-selectivity)” value was determined as 0.85x. The molecule further came in with an IC50 against Cbl-b of 17 nM.
Take `Cn1cnnc1[C@H](F)[C@@](C)(F)c1cccc(N2Cc3c(cc(CN4CCC5(CC5)C4)cc3C(F)(F)F)C2=O)c1` [Compound 128, 6-(5-azaspiro[2.4]heptan-5-ylmethyl)-2-(3-((1S,2S)-1,2-difluoro-1-(4-methyl-4H-1,2,4-triazol-3-yl)propan-2-yl)phenyl)-4-(trifluoromethyl)isoindolin-1-one]: the “(fold-selectivity)” value on c-Cbl is recorded as 3.4x.
Still for that read-out and setting: with `Cn1cnnc1[C@@H](F)[C@](C)(F)c1cccc(N2Cc3c(cc(CN4CCC5(CC5)C4)cc3C(F)(F)F)C2=O)c1` [Compound 129, 6-(5-azaspiro[2.4]heptan-5-ylmethyl)-2-(3-((1R,2R)-1,2-difluoro-1-(4-methyl-4H-1,2,4-triazol-3-yl)propan-2-yl)phenyl)-4-(trifluoromethyl)isoindolin-1-one] the figure was 3.6x; with `Cn1cnnc1[C@@H](F)[C@@](C)(F)c1cccc(N2Cc3c(cc(CN4CCC5(CC5)C4)cc3C(F)(F)F)C2=O)c1` [Compound 130, 6-(5-azaspiro[2.4]heptan-5-ylmethyl)-2-(3-((1R,2S)-1,2-difluoro-1-(4-methyl-4H-1,2,4-triazol-3-yl)propan-2-yl)phenyl)-4-(trifluoromethyl)isoindolin-1-one], 3.3x; with `Cn1cnnc1[C@H](F)C1(c2cccc(N3Cc4c(Cl)cc(CNC5(C)CCC5)cc4C3=O)c2)COC1` [Compound 470, (R)-4-chloro-2-(3-(3-(fluoro(4-methyl-4H-1,2,4-triazol-3-yl)methyl)oxetan-3-yl)phenyl)-6-(((1-methylcyclobutyl)amino)methyl) isoindolin-1-one], “(0.70x)”.

A word on the IC50: it is the concentration needed to halve the response being measured.
